From patent US20180161364A1 (priority 2015, published 2018)

How the values were obtained:
Format in all cases: cell-based
[1] = system: Aspergillus brasiliensis (DSM 1988/ATCC 16404); assay: microbe, parasite or virus in culture
Excerpt: (§1) The following bacteria and fungi strains and methods were used:
Aspergillus brasiliensis (2d) and (9d): MIC determined in accordance with a method of the European Committee on Antimicrobial Susceptibility Testing: EUCAST E.DEF 9.1, July 2008, “Method for the determination of broth dilution minimum inhibitory concentrations of antifungal agents for conidia forming moulds” available under www.eucast.

[2] = system: Candida albicans (DSM 1386/ATCC 10231); assay: microbe, parasite or virus in culture; conditions: C. albicans
Excerpt: as §1
Candida albicans: MIC determined in accordance with the method described in EUCAST DEFINITIVE DOCUMENT EDef 7.2 “Method for the determination of broth dilution minimum inhibitory concentrations of antifungal agents for yeasts” available under www.eucast.org.

[3] = system: Escherichia coli (DSM 1576/ATCC 8739); assay: microbe, parasite or virus in culture; conditions: E. coli
Excerpt: as §1
(§2) Pseudomonas aeruginosa and Escherichia coli: MIC determined in accordance with DIN EN ISO 20776-1: 2006.

[4] = system: Pseudomonas aeruginosa (DSM 1128/ATCC 9027); assay: microbe, parasite or virus in culture; conditions: P. aeruginosa
Excerpt: as §1, §2

[5] = system: Human corneal epithelial cells (HCE-T-cell line); assay: MTT toxicity test; conditions: compound 0.01%, 10 minutes treatment, in reference to KRB (100% viability) and Triton X (0% viability)
Method: The toxicity of the compounds of the invention was determined in accordance with a conventional MTT test. Human corneal epithelial cells (HCE-T-cell line) were cultivated in 5% Sasaki cell culture medium consisting of 250 ml DMEM (Dulbecco's Modified Eagle's Medium), 250 ml Ham's F12 medium, 27.17 ml fetale calf serum, 543.4 μl insulin 5 mg/ml, 1.086 ml EGF stock solution 5 μg/ml, 2.717 ml DMSO and 5.43 ml antibiotic/antimycotic solution. The cells were seeded into a 96 wells cell culture plate (18 000 cells/well) and grown in an incubator for about 24 h (37° C., 5% CO2). The medium was removed and the test compounds dissolved in KRB (Krebs Ringer buffer) were applied. 100 μl KRB were used as positive control whereas a 0.5% Triton X solution was used as negative control.
After incubation for 10 min. under light protection the test compounds were removed and the plates were rinsed once with 100 μl phosphate buffered saline (PBS without Mg and Ca) per well. After removal of PBS 100 μl MTT reagent (0.05%) were added into each well followed by incubation for 3h at 37° C. under light protection. Thereafter, the reagent was removed and replaced by 100 μl lysis solution. The dark blue dye was dissolved from the cells by shaking. After 30 min. the plate was evaluated by UV spectroscopy at 570 nm.

SMILES	MIC ([1]; 48 h, A. bras. (2d)) [µg/mL]	MIC ([1]; 216 h, A. bras. (9d)) [µg/mL]	MIC [2] [µg/mL]	MIC [3] [µg/mL]	MIC [4] [µg/mL]	Viability [5] [%]
c1cc(-c2cc[n+](CCCC[n+]3ccc(-c4ccncc4)cc3)cc2)ccn1 [Comp. ex. 3, reference compound]	200	200 to 400	200	200	> 400	–
CC[N+](CC)(CC)C/C=C/C[n+]1ccc(CCCc2cc[n+](C/C=C/C[n+]3ccc(CCCc4cc[n+](C/C=C/C[N+](CC)(CC)CC)cc4)cc3)cc2)cc1 [Ex. 3]	12.5	12.5 to 25	< 3.1	50	25	90.3 ± 7.0
BrCCCC[n+]1ccc(-c2ccncc2)cc1 [Ex. 5]	3.1	3.1 to 50	1.56	6.3	12.5	83.8 ± 12.6
CCCCCCCCCCCC[N+](C)(C)CCCC[n+]1ccc(-c2ccncc2)cc1 [Ex. 6.2]	6.3	6.3	< 3.12	6.3	12.5	74.9 ± 12.0
